Data as given in patent US20150366943A1, “MOBILIZATION OF HEMATOPOIETIC STEM CELLS FROM BONE MARROW TO BLOOD USING A COMBINATION OF A ROBO4 RECEPTOR ANTAGONIST AND A CXCR4 ANTAGONIST OR hrVEGF-165 AND A CXCR4 ANTAGONIST” (The Regents of the University of California, priority 2012, published 2015).

Assays:
[1] = system: hematopoietic stem cells (HSC) and progenitors in peripheral blood
Method: Briefly, mice were injected IP with 200 mg/kg of Cytoxan in HBSS (Sigma-Aldrich) on day −1, followed by 2 or 4 sequential daily sub-cutaneous injections of […] rhG-CSF (Humanzyme, Chicago, Ill.). Tissues were analyzed on day 2 or 4, as indicated (FIGS. 3A, 4A). A cohort from each group was injected IV with 5 mg/kg of AMD3100 1 hour prior to sacrifice. For AMD3100 alone, mice were treated with two serial AMD3100 (5 mg/kg) IV injections one hour apart. Peripheral blood, spleen, and bone marrow were isolated one hour later and processed for cell counts and flow cytometry analysis to determine the numbers and frequencies of each cell population.

[2] = system: BM cell (HSC, T cell) migration toward Sdf1; test: Modified Boyden (transwell) migration assay; format: cell-based, mice
Method: BM cells (lineage depleted by magnetic selection, when appropriate), were preincubated at 37° C. for one hour, then placed in the upper chamber of a transwell insert (5 μm pore size). Bottom and/or top wells contained Sdf1 (100 ng/ml) and/or Slit2, as indicated. Cells were allowed to migrate for 2 hrs at 37° C. before harvesting and analysis by flow cytometry.

[3] = system: HSC localization to the BM; settings: three hours post-injection
Method: BM cells were labeled with CFSE labeling dye (Invitrogen) for 5 minutes at ambient temperature, followed by antibody labeling and isolation of cKit^+/Lin^−/Sca1^+/CFSE^hi cells by two rounds of FACS. Sorted cells were split in two equal parts and incubated with or without AMD3100 ([…]) on ice for 30 minutes. Cells were washed, pelleted by centrifugation, and resuspended in HBSS at 400,000 cells/ml. Hosts, lethally irradiated 24 hours prior to transplantation, were injected IV with 40,000 cells in 100 μI. Three hours post-transplant, tissues were harvested from individual mice and analyzed for CFSE labeled cells by flow cytometry. Total cell numbers were counted using a Beckman Coulter Cell Counter.

[4] = system: hematopoietic stem cells (HSC) and progenitors in peripheral blood; settings: previous reports (Bonig 2009; Broxmeyer 2005); cited from earlier work
[5] = system: HL60 cells; test: HL60 cell migration toward fMLP; format: cell-based; settings: Slit2, FIG. 11C
Method: (A) Purified Sdf1 (100 ng/ml) with and without Slit2 (250 or 500 ng/ml) was placed in bottom wells and the migration of lineage-depleted BM cells after a 2-hour incubation period were quantitated by flow cytometry. […] (B) Slit2 had no effect on T cell migration by itself (black bars) or in combination with Sdf1 (purple bars) in vitro. Experiment performed as in A, except unfractionated BM cells were placed in top wells. (C) Slit2 attenuated HL60 cell migration toward fMLP. Data shown are representative of at least two (C) or three (A and B) independent experiments. Error bars represent SEM. *p<0.03.

[6] = system: wt HSC; test: In vitro proliferation of HSC; format: cell-based, mice; settings: Slit2 4 ug/ml, FIG. 9E
Method: HSC and MPP were isolated and sorted from Robo4^−/− and wt mice as previously described. 90-200 cells were plated per well of either strain into a 96-well U-bottom tissue culture plate and cultured for up to 10 days in IMEM medium (Fisher) supplemented with 10% FBS, 25 ng/ml of IL-11, 25 ng/ml of GM-CSF, 25 ng/ml of SCF, 10 ng/ml IL-3 (Cytokines from Peprotech) and Primocin (Invivogen). On days 3, 5, 7, and 10 FITC-labeled spherobeads (BD Bioscience) were added and triplicate samples were analyzed using a FACSAria. Cell expansion rates were calculated based on the number of beads recovered per 10,000 beads added per well.

| Molecule | efficiency of AMD3100-induced HSC mobilization in Robo4−/− mice compared to wt mice ([1]; FIG. 4E) | progenitor cell numbers in the blood ([1]; one hour after two sequential AMD3100 injections, wt mice) | circulating HSC ([1]; one hour after two sequential AMD3100 injections, wt mice, FIG. 4D) | increase in PB HSC ([1]; wt mice, AMD3100 mobilization, FIG. 4D) | cell migration toward Sdf1 after preincubation with AMD3100 ([2]; increasing amounts of AMD3100, FIG. 6A) | concentration giving complete inhibition of HSC migration toward Sdf1 ([2]; preincubation with AMD3100, FIG. 6A) | reduction in donor cells localizing to the BM ([3]; AMD3100 preincubation of wt cells, FIG. 6B) | BM localization of Robo4-deficient cells treated with AMD3100 ([3]; FIG. 6B) | donor cells in the blood stream ([3]; FIG. 6C) | localization to the spleen ([3]; FIG. 6D) | HSC numbers increase (long-term reconstitution capability of PB cells upon AMD3100 mobilization) [4] | migration of CD4+T cells toward Sdf1 ([2]; Slit2, FIG. 11B) | HSC migration toward Slit2 ([2]; data not shown) | cell migration toward Sdf1 with Slit2 added ([2]; lineage-depleted BM cells, Sdf1 100 ng/ml, Slit2 250 or 500 ng/ml, 2-hour incubation, FIG. 11A) | HL60 cell migration toward fMLP [5] | in vitro proliferation rates of wt HSC [6] |
| --- | --- | --- | --- | --- | --- | --- | --- | --- | --- | --- | --- | --- | --- | --- | --- | --- |
| c1cc(CN2CCCNCCNCCCNCC2)ccc1CN1CCCNCCNCCCNCC1 [AMD3100] | much greater | increased robustly | surprisingly few | ~1.5 fold | dose-dependent decrease | 25 µM | ~2 fold | further decrease in BM localization | reciprocal increase | no differences | 1.5-8 fold |  |  |  |  |  |
| Slit2: the Robo ligand Slit2, a large secreted protein (protein, UniProt O94813 31-1529, looked up) Slit homolog 2 protein: QCSCSGSTVDCHGLALRSVPRNIPRNTERLDLNGNNITRITKTDFAGLRHLRVLQLMENKISTIERGAFQDLKELERLRLNRNHLQLFPELLFLGTAKLYRLDLSENQIQAIPRKAFRGAVDIKNLQLDYNQISCIEDGAFRALRDLEVLTLNNNNITRLSVASFNHMPKLRTFRLHSNNLYCDCHLAWLSDWLRQRPRVGLYTQCMGPSHLRGHNVAEVQKREFVCSGHQSFMAPSCSVLHCPAACTCSNNIVDCRGKGLTEIPTNLPETITEIRLEQNTIKVIPPGAFSPYKKLRRIDLSNNQISELAPDAFQGLRSLNSLVLYGNKITELPKSLFEGLFSLQLLLLNANKINCLRVDAFQDLHNLNLLSLYDNKLQTIAKGTFSPLRAIQTMHLAQNPFICDCHLKWLADYLHTNPIETSGARCTSPRRLANKRIGQIKSKKFRCSAKEQYFIPGTEDYRSKLSGDCFADLACPEKCRCEGTTVDCSNQKLNKIPEHIPQYTAELRLNNNEFTVLEATGIFKKLPQLRKINFSNNKITDIEEGAFEGASGVNEILLTSNRLENVQHKMFKGLESLKTLMLRSNRITCVGNDSFIGLSSVRLLSLYDNQITTVAPGAFDTLHSLSTLNLLANPFNCNCYLAWLGEWLRKKRIVTGNPRCQKPYFLKEIPIQDVAIQDFTCDDGNDDNSCSPLSRCPTECTCLDTVVRCSNKGLKVLPKGIPRDVTELYLDGNQFTLVPKELSNYKHLTLIDLSNNRISTLSNQSFSNMTQLLTLILSYNRLRCIPPRTFDGLKSLRLLSLHGNDISVVPEGAFNDLSALSHLAIGANPLYCDCNMQWLSDWVKSEYKEPGIARCAGPGEMADKLLLTTPSKKFTCQGPVDVNILAKCNPCLSNPCKNDGTCNSDPVDFYRCTCPYGFKGQDCDVPIHACISNPCKHGGTCHLKEGEEDGFWCICADGFEGENCEVNVDDCEDNDCENNSTCVDGINNYTCLCPPEYTGELCEEKLDFCAQDLNPCQHDSKCILTPKGFKCDCTPGYVGEHCDIDFDDCQDNKCKNGAHCTDAVNGYTCICPEGYSGLFCEFSPPMVLPRTSPCDNFDCQNGAQCIVRINEPICQCLPGYQGEKCEKLVSVNFINKESYLQIPSAKVRPQTNITLQIATDEDSGILLYKGDKDHIAVELYRGRVRASYDTGSHPASAIYSVETINDGNFHIVELLALDQSLSLSVDGGNPKIITNLSKQSTLNFDSPLYVGGMPGKSNVASLRQAPGQNGTSFHGCIRNLYINSELQDFQKVPMQTGILPGCEPCHKKVCAHGTCQPSSQAGFTCECQEGWMGPLCDQRTNDPCLGNKCVHGTCLPINAFSYSCKCLEGHGGVLCDEEEDLFNPCQAIKCKHGKCRLSGLGQPYCECSSGYTGDSCDREISCRGERIRDYYQKQQGYAACQTTKKVSRLECRGGCAGGQCCGPLRSKRRKYSFECTDGSSFVDEVEKVVKCGCTRCVS |  |  |  |  |  |  |  |  |  |  |  | not affected | did not detect | No significant differences | inhibition | did not affect |
